Data taken from article PMC6225345, “Structural Characterization of the Lactobacillus Plantarum FlmC Protein Involved in Biofilm Formation” (Molecules : A Journal of Synthetic Chemistry and Natural …, 2018).

Target: T1, ΔTM-FlmC (FlmC81-335) (Lactiplantibacillus plantarum, UniProt F9UMI5)
T1 construct: gene lp_1000
Assay: co-purification from E. coli; organic extraction of unfolded protein, TLC and UHPLC-HRMS
Assay type: binding
Settings: lipid acquired from expression host; identity inferred from m/z 775.5789 (+, in-source dehydro form) and 387.2863 (2-), tentative

T1 sequence (F9UMI5 entry or part of it, stated change not applied): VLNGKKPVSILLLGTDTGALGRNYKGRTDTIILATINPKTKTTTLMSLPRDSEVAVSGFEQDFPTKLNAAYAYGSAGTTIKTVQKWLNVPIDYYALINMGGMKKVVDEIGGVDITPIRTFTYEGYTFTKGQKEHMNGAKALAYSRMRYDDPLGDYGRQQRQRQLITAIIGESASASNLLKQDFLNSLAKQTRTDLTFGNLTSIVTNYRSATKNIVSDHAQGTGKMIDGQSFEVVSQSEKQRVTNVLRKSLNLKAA

Compound: CC(C)=CCCC(C)=CCCC(C)=CCCC(C)=CCCC(C)=CCCC(C)=CCCC(C)=CCCC(C)=CCCC(C)=CCCC(C)=CCOP(=O)(O)O [decaprenyl phosphate]
- co-purification from E. coli; organic extraction of unfolded protein, TLC and UH: occurrence of a decaprenyl phosphate (dpr-P) ligand tightly bound to the protein was hypothesized
